Assays:
[1] = target: T1, HIV-1 RT-associated RNase H (Human immunodeficiency virus type 1 group M subtype B, UniProt P04585); test: HIV-1 RT-associated RNase H inhibition (fluorescent RNA/DNA hybrid); format: biochemical; settings: for IC50: HIV-1 RT wt, average of three independent determinations, read-out: IC50, concentration required to inhibit 50% of in vitro RNase H activity; for Fold increase in RNase H inhibitory potency compared to compound 6a: IC50 ratio versus 6a; for Fold increase in RNase H inhibitory potency compared to compound 6t: IC50 ratio versus 6t
T1 construct: HIV-1 group M subtype B heterodimeric reverse transcriptase (RT) was expressed and purified; made in house; host or cells: Escherichia coli strain M15, p6HRT-Prot expression vector
Procedure: The tested compounds were initially dissolved in dimethyl sulfoxide (DMSO) at a concentration of 50 mM and subsequently serially diluted (ratio 1:3). The compounds were tested as previously described.
Briefly, a reaction mixture containing 50 mM Tris-HCl buffer pH 7.8, 6 mM MgCl2, 1 mM dithiothreitol (DTT), 80 mM KCl, 0.25 μM hybrid RNA/DNA. 25 μM of RNA/DNA hybrid 5′-GAUCUGAGCCUGGAGCU-Fluorescin-3′ (HPLC, dry, QC: Mass Check), 5′-Dabcyl-AGCTCCCAGGCTCAGATC-3′ (HPLC, dry, QC: Mass Check), and increasing concentrations of inhibitors was diluted in DMSO. The activity of the RNase H function associated with HIV-1 RT was quantified by measuring the linear portion of the dose–response curve. The reaction mixture was incubated at 37 °C for 10 min with a Victor Nivo 5 multilabel plate reader (model 1420-051, PerkinElmer, Waltham, MA, USA), and fluorescence signals were recorded at excitation/emission wavelengths of 490/528 nm. Based on the obtained fluorescence data, the inhibitory concentration 50 (IC50) of the target compounds was calculated by interpolation on a dose–response curve. Results are reported as average and standard deviation of at least two independent replicates in triplicate.

HIV-1 RT R448A = test: RNase H inhibition with HIV-1 RT R448A mutant versus RT wt; format: biochemical; settings: HIV-1 RT R448A versus RT wt
Description: Furthermore, to validate the docking binding prediction of the compounds in the active site of the RT, and the interaction with amino acid residue R448, which was predicted to stabilize the binding of the compounds through a hydrogen bond, we evaluated the activity of compounds 6t and 11a in parallel against the RT wt enzyme and the HIV-1 RT R448A mutant (Figure 6). […] The results confirmed the importance of residue R448 in the binding of inhibitors and validated the predicted binding site to the enzyme; indeed, the less pronounced effect of R448A mutation on 11a inhibitory activity might be explained with the additional hydrogen bound predicted to form between 11a and amino acid Q475 (Figure 6).

[2] = Cytotoxicity in mock-infected MT-4 cells, MTT assay; format: cell-based; settings: human, mock-infected MT-4 cells; reduction of normal uninfected MT-4 cell viability by 50%
Procedure: (§1) The anti-HIV-1 (strain IIIB) activity evaluation in MT-4 cells was conducted using an optimized MTT assay. The cell lines were obtained from the laboratory (Prof. Erik De Clercq, Rega Institute for Medical Research, KU Leuven, Herestraat 49, Leuven, Belgium). Compounds were serially diluted (5-fold increments, starting from 10× concentration) and dispensed into 96-well plates (25 µL/well) via an automated Biomek 3000 workstation (Beckman Instruments, Fullerton, CA, USA). Parallel experimental groups included virus-infected (50 µL HIV inoculum, 100–300 TCID50) and mock-infected controls (50 µL culture medium). MT-4 cells were centrifuged (220× g, 5 min), resuspended to 6 × 10⁵ cells/mL, and seeded (50 µL/well). After a 5-day incubation, cell viability was quantified by measuring mitochondrial dehydrogenase-mediated MTT-to-formazan conversion using dual-wavelength spectrophotometry (540 nm primary, 690 nm reference). The 50% cytotoxic concentration (CC50) was calculated from triplicate median absorbance values, representing the compound concentration reducing mock-infected cell viability by 50%.

[3] = target: T1, HIV-1 RT-associated RNase H; test: Kinetic analysis of RNase H inhibition, competition with RNA/DNA substrate; format: biochemical; settings: for Mode of inhibition: Michaelis Menten and Lineweaver-Burk plots; for Ki: competition with RNA substrate
Description: Based on the docking binding predictions, compound 6t and compound 11a were chosen for further characterization. To study the interaction between the chemical compounds and the enzyme in complex with the substrate, we evaluated the competition of compounds 6a and 11a with the RNA substrate (Figure 5). […] Given the results obtained, it is hypothesized that the binding between the inhibitor and the RT protein may modulate the interaction between the enzyme and the RNA substrate, resulting in an increased apparent KM and decreased apparent Vmax when increasing the concentration of the inhibitor.
Kinetic analysis of the DNA-polymerase independent RNase H activity was performed as already reported. Briefly, a reaction mixture containing 50 mM Tris-HCl buffer pH 7.8, 6 mM MgCl2, 1 mM DTT, 80 mM KCl, and increasing concentrations of hybrid RNA/DNA 5′-GAUCUGAGCCUGGGAGCU-Fluorescin-3′/5′-Dabcyl-AGCTCCCAGGCTCAGATC-3′ was incubated at 37 °C for 10 min with a Victor Nivo 5 multilabel plate reader (model 1420-051, PerkinElmer, Waltham, MA, USA), and fluorescence signals were recorded at excitation/emission wavelengths of 490/528 nm. Results were represented according to Michaelis Menten and Lineaweaver–Burke plots.

HIV-1 (strain IIIB) = test: Anti-HIV-1 (strain IIIB) activity in MT-4 cells, MTT assay; format: cell-based; settings: for EC50: Human immunodeficiency virus 1, IIIB, MT4, protection of MT-4 cells against HIV-induced cytopathogenicity by 50%; for SI, selectivity index: ratio CC50/EC50, MT-4 cells
Procedure: as §1

SMILES: O=C1Nc2ccc(F)cc2C1=NNc1cc(=O)[nH]c(=O)[nH]1 [Compound 6a, 6-(2-(5-Fluoro-2-oxoindolin-3-ylidene)hydrazineyl)pyrimidine-2,4(1H,3H)-dione]
- IC50 [1]: 81.2 ± 11.4 µM

SMILES: O=C1Nc2ccccc2C1=NNc1cc(=O)[nH]c(=O)[nH]1 [Compound 6b, 6-(2-(2-Oxoindolin-3-ylidene)hydrazineyl)pyrimidine-2,4(1H,3H)-dione]
- IC50 [1]: > 100 µM

SMILES: O=C1Nc2ccc(Cl)cc2C1=NNc1cc(=O)[nH]c(=O)[nH]1 [Compound 6c, 6-(2-(5-Chloro-2-oxoindolin-3-ylidene)hydrazineyl)pyrimidine-2,4(1H,3H)-dione]
- IC50 [1]: 58.8 ± 2.4 µM

SMILES: O=C1Nc2ccc(Br)cc2C1=NNc1cc(=O)[nH]c(=O)[nH]1 [Compound 6d, 6-(2-(5-Bromo-2-oxoindolin-3-ylidene)hydrazineyl)pyrimidine-2,4(1H,3H)-dione]
- IC50 [1]: > 100 µM

SMILES: Cc1ccc2c(c1)C(=NNc1cc(=O)[nH]c(=O)[nH]1)C(=O)N2 [Compound 6e, 6-(2-(5-Methyl-2-oxoindolin-3-ylidene)hydrazineyl)pyrimidine-2,4(1H,3H)-dione]
- IC50 [1]: > 100 µM

SMILES: O=C1Nc2ccc(OC(F)(F)F)cc2C1=NNc1cc(=O)[nH]c(=O)[nH]1 [Compound 6f, 6-(2-(2-Oxo-5-(trifluoromethoxy)indolin-3-ylidene)hydrazineyl)pyrimidine-2,4(1H,3H)-dione]
- IC50 [1]: 8.94 ± 1.43 µM

SMILES: O=C1Nc2cc(F)ccc2C1=NNc1cc(=O)[nH]c(=O)[nH]1 [Compound 6g, 6-(2-(6-Fluoro-2-oxoindolin-3-ylidene)hydrazineyl)pyrimidine-2,4(1H,3H)-dione]
- IC50 [1]: 56.8 ± 15.9 µM

SMILES: O=C1Nc2cc(Cl)ccc2C1=NNc1cc(=O)[nH]c(=O)[nH]1 [Compound 6h, 6-(2-(6-Chloro-2-oxoindolin-3-ylidene)hydrazineyl)pyrimidine-2,4(1H,3H)-dione]
- IC50 [1]: > 100 µM

SMILES: O=C1Nc2cc(Br)ccc2C1=NNc1cc(=O)[nH]c(=O)[nH]1 [Compound 6i, 6-(2-(6-Bromo-2-oxoindolin-3-ylidene)hydrazineyl)pyrimidine-2,4(1H,3H)-dione]
- IC50 [1]: 23.6 ± 1.11 µM

SMILES: O=C1Nc2cc(OC(F)(F)F)ccc2C1=NNc1cc(=O)[nH]c(=O)[nH]1 [Compound 6j, 6-(2-(2-Oxo-6-(trifluoromethoxy)indolin-3-ylidene)hydrazineyl)pyrimidine-2,4(1H,3H)-dione]
- IC50 [1]: 15.28 ± 0.01 µM

SMILES: O=C1Nc2c(F)cccc2C1=NNc1cc(=O)[nH]c(=O)[nH]1 [Compound 6k, 6-(2-(7-Fluoro-2-oxoindolin-3-ylidene)hydrazineyl)pyrimidine-2,4(1H,3H)-dione]
- IC50 [1]: > 100 µM

SMILES: O=C1Nc2c(Cl)cccc2C1=NNc1cc(=O)[nH]c(=O)[nH]1 [Compound 6l, 6-(2-(7-Chloro-2-oxoindolin-3-ylidene)hydrazineyl)pyrimidine-2,4(1H,3H)-dione]
- IC50 [1]: 46.6 ± 3.25 µM

SMILES: O=C1Nc2c(Br)cccc2C1=NNc1cc(=O)[nH]c(=O)[nH]1 [Compound 6m, 6-(2-(7-Bromo-2-oxoindolin-3-ylidene)hydrazineyl)pyrimidine-2,4(1H,3H)-dione]
- IC50 [1]: 43.8 ± 7.92 µM

SMILES: Cc1cccc2c1NC(=O)C2=NNc1cc(=O)[nH]c(=O)[nH]1 [Compound 6n, 6-(2-(7-Methyl-2-oxoindolin-3-ylidene)hydrazineyl)pyrimidine-2,4(1H,3H)-dione]
- IC50 [1]: 25.5 ± 1.37 µM

SMILES: O=C1Nc2c(cccc2C(F)(F)F)C1=NNc1cc(=O)[nH]c(=O)[nH]1 [Compound 6o, 6-(2-(2-Oxo-7-(trifluoromethyl)indolin-3-ylidene)hydrazineyl)pyrimidine-2,4(1H,3H)-dione]
- IC50 [1]: 24.1 ± 7.02 µM

SMILES: COc1ccc2c(c1)C(=NNc1cc(=O)[nH]c(=O)[nH]1)C(=O)N2 [Compound 6p, 6-(2-(5-Methoxy-2-oxoindolin-3-ylidene)hydrazineyl)pyrimidine-2,4(1H,3H)-dione]
- IC50 [1]: > 100 µM

SMILES: COc1ccc2c(c1)NC(=O)C2=NNc1cc(=O)[nH]c(=O)[nH]1 [Compound 6q, 6-(2-(6-Methoxy-2-oxoindolin-3-ylidene)hydrazineyl)pyrimidine-2,4(1H,3H)-dione]
- IC50 [1]: > 100 µM

SMILES: COc1cccc2c1NC(=O)C2=NNc1cc(=O)[nH]c(=O)[nH]1 [Compound 6r, 6-(2-(7-Methoxy-2-oxoindolin-3-ylidene)hydrazineyl)pyrimidine-2,4(1H,3H)-dione]
- IC50 [1]: > 100 µM

SMILES: O=C1Nc2cc(F)c(F)cc2C1=NNc1cc(=O)[nH]c(=O)[nH]1 [Compound 6s, 6-(2-(5,6-Difluoro-2-oxoindolin-3-ylidene)hydrazineyl)pyrimidine-2,4(1H,3H)-dione]
- IC50 [1]: 64.9 ± 0.77 µM

SMILES: O=C1Nc2cc(Cl)c(Cl)cc2C1=NNc1cc(=O)[nH]c(=O)[nH]1 [Compound 6t, 6-(2-(5,6-Dichloro-2-oxoindolin-3-ylidene)hydrazineyl)pyrimidine-2,4(1H,3H)-dione]
- IC50 [1]: 7.85 ± 0.55 µM
- Fold increase in RNase H inhibitory potency compared to compound 6a [1]: ~10 fold
- Shift of the inhibition curve (loss of potency) (HIV-1 RT R448A): four-fold
- CC50 at 5 days [2]: 294 µM
- Mode of inhibition [3]: mixed model inhibitor
- Ki [3]: 2.31 µM
- Vmax (apparent) ([3]; inhibitor 4 μM): 124.2
- Vmax (apparent) ([3]; inhibitor 12 μM): 104.6
- EC50 (HIV-1 (strain IIIB)): 110 µM
- SI, selectivity index (HIV-1 (strain IIIB)): 3

SMILES: O=C1Nc2cc(Br)c(Br)cc2C1=NNc1cc(=O)[nH]c(=O)[nH]1 [Compound 6u, 6-(2-(5,6-Dibromo-2-oxoindolin-3-ylidene)hydrazineyl)pyrimidine-2,4(1H,3H)-dione]
- IC50 [1]: 11.8 ± 0.81 µM

SMILES: Cc1cc(C)c2c(c1)C(=NNc1cc(=O)[nH]c(=O)[nH]1)C(=O)N2 [Compound 6v, 6-(2-(5,7-Dimethyl-2-oxoindolin-3-ylidene)hydrazineyl)pyrimidine-2,4(1H,3H)-dione]
- IC50 [1]: 23.6 ± 3.89 µM

SMILES: O=C1Nc2cc(Cl)c(Cl)cc2C1=NNc1c[nH]c(=O)[nH]c1=O [Compound 11a, 5-(2-(5,6-Dichloro-2-oxoindolin-3-ylidene)hydrazineyl)pyrimidine-2,4(1H,3H)-dione]
- IC50 [1]: 1.9 ± 0.01 µM
- Fold increase in RNase H inhibitory potency compared to compound 6a [1]: 40 fold
- Fold increase in RNase H inhibitory potency compared to compound 6t [1]: 4 fold
- Shift of the inhibition curve (loss of potency) (HIV-1 RT R448A): two-fold
- CC50 at 5 days [2]: 402 µM
- Mode of inhibition [3]: mixed model inhibitor
- Ki [3]: 0.55 µM
- Vmax (apparent) ([3]; inhibitor 1 μM): 105.8
- Vmax (apparent) ([3]; inhibitor 2 μM): 98.24
- Vmax (apparent) ([3]; inhibitor 4 μM): 41.29
- EC50 (HIV-1 (strain IIIB)): 39 µM
- SI, selectivity index (HIV-1 (strain IIIB)): 10

SMILES: O=C1Nc2cc(Br)c(Br)cc2C1=NNc1c[nH]c(=O)[nH]c1=O [Compound 11b, 5-(2-(5,6-Dibromo-2-oxoindolin-3-ylidene)hydrazineyl)pyrimidine-2,4(1H,3H)-dione]
- IC50 [1]: 2.2 ± 0.2 µM
- Fold increase in RNase H inhibitory potency compared to compound 6a [1]: 40 fold
- Fold increase in RNase H inhibitory potency compared to compound 6t [1]: 4 fold
- CC50 at 5 days [2]: 349 µM
- EC50 (HIV-1 (strain IIIB)): 44.9 µM
- SI, selectivity index (HIV-1 (strain IIIB)): 8

From article PMC12073785, “Design, Synthesis and Biological Evaluation of 3-Hydrazonoindolin-2-one Derivatives as Novel HIV-1 RNase H Inhibitors” (Molecules, 2025)
